Legend:
Type in all cases: in vivo
[1] = test system: Housefly [Musca domestica]; test: Housefly insecticidal test; details: μg per 25 female flies; mortality after 48 hours
Method in brief: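 Acetone solutions (with 0.01% peanut oil) dried onto dish bottoms, then 25 female flies, 1-2 days old, caged over the residue with sugar water. Mortality scored at 48 hours; LC50 from dosage-mortality curves, in μg per 25 female flies, top level 100 μg.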

[2] = test system: Tobacco Budworm [Heliothis virescens (Fabricius)] eggs; test: Tobacco budworm egg test; details: 2-day old eggs, percent in solution
Method in brief: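 2-day eggs on paper towel, acetone dip, 0.1% and below; petri dish with larval diet, 78° F. Mortality read after control hatch and larval feeding. LC50 = % compound in solution, from dose-mortality curve.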

[3] = test system: Cabbage Looper [Trichoplusia ni (Hubner)]; test: Cabbage looper insecticidal test; details: second-instar larvae, percent in solution; 3-5 days
Method in brief: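 LC50 values, given as percent test compound in solution, were calculated from dosage-mortality curves. Squash cotyledons were immersed 2-3 s in acetone-water (50-50) dilutions starting at 0.1%, dried on a screen, then infested with five second-instar larvae. Mortality was read 3-5 days on.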

SMILES	LC50, HF [1]	LC50, TBW, E (TBW-E) [2]	LC50, CL [3]
CC(C)C(=Nc1ccc(C2CCCCC2)cc1)OCc1cccc(Oc2ccc(F)cc2)c1 [Compound 280]	> 100 µg	> 0.1%	0.024%
CC(C)C(=Nc1ccc(C(F)(F)F)cc1)OCc1ccc(F)c(Oc2ccc(F)cc2)c1 [Compound 287]	> 100 µg	> 0.1%	0.0025%
CC(C)C(=Nc1cccc(OC(F)(F)C(F)F)c1)OCc1cccc(Oc2ccc(F)cc2)c1 [Compound 288]	> 100 µg	> 0.1%	0.0015%
CCC(CC)C(=Nc1ccc(Cl)cc1)OCc1cccc(Oc2ccc(F)cc2)c1 [Compound 290]	> 100 µg	> 0.1%	0.017%
CCC(CC)C(=Nc1cccc(C(F)(F)F)c1)OCc1cccc(Oc2ccc(F)cc2)c1 [Compound 291]	> 100 µg	> 0.1%	0.004%
CC(Br)C(=Nc1ccc(F)c(Cl)c1)OCc1cccc(Oc2ccc(F)cc2)c1 (stereo not drawn) [Compound 305]	> 100 µg	> 0.1%	0.048%
CC(C)C(=Nc1ccc(C(C)(C)C)c(Cl)c1)OCc1cccc(Oc2ccc(F)cc2)c1 [Compound 308]	> 100 µg	> 0.1%	0.009%
CC(C)(F)C(=Nc1ccc(F)c(Cl)c1)OCc1cccc(Oc2ccc(F)cc2)c1 [Compound 309]	> 100 µg	0.07%	0.00017%
CC(C)C(=Nc1ccc(Cl)cc1Cl)OCc1cccc(Oc2ccccc2)c1 [Compound 311]	22 µg	0.1%	0.0017%
CC(C)C(=Nc1ccc(Cl)cc1Cl)OCc1cccc(Oc2ccc(F)cc2)c1 [Compound 312]	> 100 µg	> 0.1%	0.006%
CC(C)C(=Nc1ccc2c(c1)OCO2)OCc1ccc(F)c(Oc2ccc(Cl)cc2)c1 [Compound 313]	> 100 µg	0.013%	0.00025%
CCC(C)C(=Nc1ccc(C(C)C)cc1)OCc1cccc(Oc2ccccc2)c1 (stereo not drawn) [Compound 317]	> 100 µg	0.03%	0.0045%
CC(C)(F)C(=Nc1ccc(F)c(F)c1)OCc1cccc(Oc2ccc(F)cc2)c1 [Compound 318]	19 µg	> 0.1%	0.0007%
CC(C)(F)C(=Nc1cccc(C(F)(F)F)c1)OCc1cccc(Oc2ccc(F)cc2)c1 [Compound 319]	44 µg	> 0.1%	0.0007%
CCC(=Nc1ccc(C(C)C)cc1)OCc1cccc(Oc2ccc(F)cc2)c1 [Compound 320]	> 100 µg	> 0.1%	0.0075%
CCC(CC)C(=Nc1ccc(C(C)C)cc1)OCc1cccc(Oc2ccccc2)c1 [Compound 321]	> 100 µg	> 0.1%	0.05%
CC(C)c1ccc(N=C(OCc2cccc(Oc3ccc(F)cc3)c2)C(C)(C)C)cc1 [Compound 322]	> 100 µg	> 0.1%	0.007%
CC(C)C(=Nc1ccc(F)c(Cl)c1)OCc1cc(F)cc(Oc2ccc(F)cc2)c1 [Compound 327]	> 100 µg	> 0.1%	0.005%
CC(C)CC(=Nc1ccc(C(C)C)cc1)OCc1cccc(Oc2ccc(F)cc2)c1 [Compound 329]	7 µg	> 0.1%	0.033%
CC(C)C(=Nc1ccc(F)c(Cl)c1)OCc1cccc(Oc2ccc(I)cc2)c1 [Compound 447]	33 µg	> 0.1%	0.0009%
CC(C)C(=Nc1ccc(F)c(Cl)c1)OCc1ccc(Cl)c(Oc2ccc(F)cc2)c1 [Compound 448]	16 µg	0.03%	0.003%
Fc1c(F)c(F)c(COC(=Nc2cccc(Cl)c2Cl)C(Cl)Cl)c(F)c1F [Compound 454]	> 100 µg	> 0.1%	0.03%
Cc1c(COC(=Nc2ccc(Cl)cc2)C(C)C)cccc1-c1ccccc1 [Compound 455]	> 100 µg	> 0.1%	0.0025%
Cc1c(COC(=Nc2ccc(F)cc2)C(C)C)cccc1-c1ccccc1 [Compound 458]	100 µg	> 0.05%	0.007%

Reference: US5070210A, “Novel ketenimines as intermediates for insecticides” (ICI Americas Inc., priority 1990, dated 1991)
